From PubChem BioAssay (NCI)
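Abbreviation: GI50, concentration required for 50% inhibition of growth. Definition used: TGI = concentration required for complete inhibition of growth.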

How the values were obtained:
Experiment in all cases: NCI anticancer screen, dose series, 384-well format
SF-295 CNS = tested on: SF-295 CNS
UACC-257 melanoma = tested on: UACC-257 melanoma
CAKI-1 renal = tested on: CAKI-1 renal
SK-MEL-5 melanoma = tested on: SK-MEL-5 melanoma
K-562 leukemia = tested on: K-562 leukemia
BT-549 breast = tested on: BT-549 breast
T-47D breast = tested on: T-47D breast
SNB-19 CNS = tested on: SNB-19 CNS
HCC-2998 colon = tested on: HCC-2998 colon
RXF 393 renal = tested on: RXF 393 renal
MOLT-4 leukemia = tested on: MOLT-4 leukemia
DU-145 prostate = tested on: DU-145 prostate
SW-620 colon = tested on: SW-620 colon
SNB-75 CNS = tested on: SNB-75 CNS
MDA-MB-231 breast = tested on: MDA-MB-231 breast
MALME-3M melanoma = tested on: MALME-3M melanoma
SK-OV-3 ovarian = tested on: SK-OV-3 ovarian
OVCAR-8 ovarian = tested on: OVCAR-8 ovarian
IGROV1 ovarian = tested on: IGROV1 ovarian
UACC-62 melanoma = tested on: UACC-62 melanoma
UO-31 renal = tested on: UO-31 renal
SK-MEL-28 melanoma = tested on: SK-MEL-28 melanoma
HT29 colon = tested on: HT29 colon
A498 renal = tested on: A498 renal
NCI-H23 lung = tested on: NCI-H23 lung
MDA-MB-468 breast = tested on: MDA-MB-468 breast
OVCAR-4 ovarian = tested on: OVCAR-4 ovarian
SF-268 CNS = tested on: SF-268 CNS
MCF7 breast = tested on: MCF7 breast
TK-10 renal = tested on: TK-10 renal
NCI-H522 lung = tested on: NCI-H522 lung
OVCAR-5 ovarian = tested on: OVCAR-5 ovarian
KM12 colon = tested on: KM12 colon
HCT-15 colon = tested on: HCT-15 colon
NCI-H322M lung = tested on: NCI-H322M lung
ACHN renal = tested on: ACHN renal
HOP-92 NSCLC = tested on: HOP-92 NSCLC
M14 melanoma = tested on: M14 melanoma
MDA-MB-435 melanoma = tested on: MDA-MB-435 melanoma
U251 glioblastoma = tested on: U251 glioblastoma
SN12C renal = tested on: SN12C renal
RPMI-8226 leukemia = tested on: RPMI-8226 leukemia
PC-3 prostate = tested on: PC-3 prostate
HOP-62 NSCLC = tested on: HOP-62 NSCLC
NCI-H226 lung = tested on: NCI-H226 lung
EKVX NSCLC = tested on: EKVX NSCLC
HS 578T breast = tested on: HS 578T breast
LOX IMVI melanoma = tested on: LOX IMVI melanoma
NCI-H460 NSCLC = tested on: NCI-H460 NSCLC
786-0 renal = tested on: 786-0 renal
CCRF-CEM leukemia = tested on: CCRF-CEM leukemia
OVCAR-3 ovarian = tested on: OVCAR-3 ovarian
HCT-116 colon = tested on: HCT-116 colon
SF-539 CNS = tested on: SF-539 CNS
HL-60(TB) leukemia = tested on: HL-60(TB) leukemia
A549 NSCLC = tested on: A549 NSCLC
NCI/ADR-RES ovarian = tested on: NCI/ADR-RES ovarian

SMILES: O=C(NCCN1CCOCC1)Nc1nc2ccc(Sc3nnc4ccc(-c5ccc(F)cc5)nn34)cc2s1
- GI50 (SF-295 CNS): 2.34 µM
- TGI (SF-295 CNS): 14.3 µM
- GI50 (UACC-257 melanoma): 4.3 µM
- TGI (UACC-257 melanoma): > 100 µM
- GI50 (CAKI-1 renal): 22.6 µM
- TGI (CAKI-1 renal): > 100 µM
- GI50 (SK-MEL-5 melanoma): 3.52 µM
- TGI (SK-MEL-5 melanoma): 47 µM
- GI50 (K-562 leukemia): 3.98 µM
- TGI (K-562 leukemia): 21.2 µM
- GI50 (BT-549 breast): 2.85 µM
- TGI (BT-549 breast): > 100 µM
- GI50 (T-47D breast): 3.1 µM
- TGI (T-47D breast): 32.5 µM
- GI50 (SNB-19 CNS): 5.14 µM
- TGI (SNB-19 CNS): > 100 µM
- GI50 (HCC-2998 colon): 5.29 µM
- TGI (HCC-2998 colon): 34.7 µM
- GI50 (RXF 393 renal): 0.606 µM
- TGI (RXF 393 renal): 2.18 µM
- GI50 (MOLT-4 leukemia): 1.74 µM
- TGI (MOLT-4 leukemia): 3.53 µM
- GI50 (DU-145 prostate): > 100 µM
- TGI (DU-145 prostate): > 100 µM
- GI50 (SW-620 colon): > 100 µM
- TGI (SW-620 colon): > 100 µM
- GI50 (SNB-75 CNS): 3.2 µM
- TGI (SNB-75 CNS): > 100 µM
- GI50 (MDA-MB-231 breast): 3.73 µM
- TGI (MDA-MB-231 breast): > 100 µM
- GI50 (MALME-3M melanoma): 3.77 µM
- TGI (MALME-3M melanoma): 13.3 µM
- GI50 (SK-OV-3 ovarian): > 100 µM
- TGI (SK-OV-3 ovarian): > 100 µM
- GI50 (OVCAR-8 ovarian): > 100 µM
- TGI (OVCAR-8 ovarian): > 100 µM
- GI50 (IGROV1 ovarian): > 100 µM
- TGI (IGROV1 ovarian): > 100 µM
- GI50 (UACC-62 melanoma): 4.58 µM
- TGI (UACC-62 melanoma): 42.3 µM
- GI50 (UO-31 renal): > 100 µM
- TGI (UO-31 renal): > 100 µM
- GI50 (SK-MEL-28 melanoma): 3 µM
- TGI (SK-MEL-28 melanoma): 7.53 µM
- GI50 (HT29 colon): 4.93 µM
- TGI (HT29 colon): 53.3 µM
- GI50 (A498 renal): 6.7 µM
- TGI (A498 renal): > 100 µM
- GI50 (NCI-H23 lung): 13 µM
- TGI (NCI-H23 lung): > 100 µM
- GI50 (MDA-MB-468 breast): 2.93 µM
- TGI (MDA-MB-468 breast): 8.45 µM
- GI50 (OVCAR-4 ovarian): > 100 µM
- TGI (OVCAR-4 ovarian): > 100 µM
- GI50 (SF-268 CNS): 2.71 µM
- TGI (SF-268 CNS): 7 µM
- GI50 (MCF7 breast): 5.39 µM
- TGI (MCF7 breast): > 100 µM
- GI50 (TK-10 renal): > 100 µM
- TGI (TK-10 renal): > 100 µM
- GI50 (NCI-H522 lung): 17.7 µM
- TGI (NCI-H522 lung): > 100 µM
- GI50 (OVCAR-5 ovarian): > 100 µM
- TGI (OVCAR-5 ovarian): > 100 µM
- GI50 (KM12 colon): 0.452 µM
- TGI (KM12 colon): > 100 µM
- GI50 (HCT-15 colon): 70.6 µM
- TGI (HCT-15 colon): > 100 µM
- GI50 (NCI-H322M lung): 42.9 µM
- TGI (NCI-H322M lung): > 100 µM
- GI50 (ACHN renal): > 100 µM
- TGI (ACHN renal): > 100 µM
- GI50 (HOP-92 NSCLC): 5.22 µM
- TGI (HOP-92 NSCLC): > 100 µM
- GI50 (M14 melanoma): > 100 µM
- TGI (M14 melanoma): > 100 µM
- GI50 (MDA-MB-435 melanoma): > 100 µM
- TGI (MDA-MB-435 melanoma): > 100 µM
- GI50 (U251 glioblastoma): 7.1 µM
- TGI (U251 glioblastoma): 60.7 µM
- GI50 (SN12C renal): > 100 µM
- TGI (SN12C renal): > 100 µM
- GI50 (RPMI-8226 leukemia): 1.18 µM
- TGI (RPMI-8226 leukemia): 2.58 µM
- GI50 (PC-3 prostate): > 100 µM
- TGI (PC-3 prostate): > 100 µM
- GI50 (HOP-62 NSCLC): 7.49 µM
- TGI (HOP-62 NSCLC): > 100 µM
- GI50 (NCI-H226 lung): 3.04 µM
- TGI (NCI-H226 lung): > 100 µM
- GI50 (EKVX NSCLC): 84 µM
- TGI (EKVX NSCLC): > 100 µM
- GI50 (HS 578T breast): 2.31 µM
- TGI (HS 578T breast): 5.35 µM
- GI50 (LOX IMVI melanoma): 20.7 µM
- TGI (LOX IMVI melanoma): > 100 µM
- GI50 (NCI-H460 NSCLC): 5 µM
- TGI (NCI-H460 NSCLC): > 100 µM
- GI50 ([…]-0 renal): 1.61 µM
- TGI (786-0 renal): 3.83 µM
- GI50 (CCRF-CEM leukemia): 4.41 µM
- TGI (CCRF-CEM leukemia): > 100 µM
- GI50 (OVCAR-3 ovarian): > 100 µM
- TGI (OVCAR-3 ovarian): > 100 µM
- GI50 (HCT-116 colon): 77 µM
- TGI (HCT-116 colon): > 100 µM
- GI50 (SF-539 CNS): 4.86 µM
- TGI (SF-539 CNS): > 100 µM
- GI50 (HL-60(TB) leukemia): 4.25 µM
- TGI (HL-60(TB) leukemia): 8.46 µM
- GI50 (A549 NSCLC): > 100 µM
- TGI (A549 NSCLC): > 100 µM
- GI50 (NCI/ADR-RES ovarian): > 100 µM
- TGI (NCI/ADR-RES ovarian): > 100 µM

SMILES: CS(=O)(=O)OCCCCOS(C)(=O)=O
- GI50 (MOLT-4 leukemia): 9.66 µM
- TGI (MOLT-4 leukemia): 21.8 µM
- GI50 (HL-60(TB) leukemia): 17.7 µM
